The values that follow come from patent US10040766B2, “Ubiquitination inhibitors” (Rigel Pharmaceuticals, Inc., priority 2014, dated 2018).

Read-outs that look alike come from different tables or passages of the source.

Experiment [1] has as its target Cks1-Skp2 protein-protein interaction (Homo sapiens, UniProt P61024+Q13309). As to the kind of experiment: Cks1-Skp2 protein-protein interaction ELISA. It is filed as binding. The source says:
In vitro binding of Skp2 to Cks1 was established in an ELISA assay format, with Cks1 protein immobilized on a 384-well plate and binding of Skp1/Skp2 to Cks1 detected by anti-Skp2 immunoreaction.
(In general: An ELISA detects its analyte on a solid surface through an enzyme-linked reagent.)

The subject of another experiment is fibrosarcoma HT1080. Put plainly: Inhibition of tumor cell growth, HT1080. Type of experiment: cell-based.
Experiment [2] relates to lung tumor cell line A549. As to the kind of experiment: Inhibition of tumor cell growth, A549. Type of experiment: cell-based.
Where [3] appears, read: Table 3, read-out: IC50 Cks1-Skp2.
Setting [4] is: sulfonamide analogues, Table 2, read-out: Potency in the Cks1-Skp2 interaction assay.
[5] abbreviates: ELISA, Cks1 immobilized, Skp1/Skp2 binding detected by anti-Skp2, read-out: Cks1-Skp2 (μM), potency in the interaction assay.

Chain of Cks1-Skp2 protein-protein interaction (P61024 whole entry): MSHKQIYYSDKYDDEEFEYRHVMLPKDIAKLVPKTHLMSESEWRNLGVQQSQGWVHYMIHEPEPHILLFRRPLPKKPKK
Chain of Cks1-Skp2 protein-protein interaction (Q13309 whole entry): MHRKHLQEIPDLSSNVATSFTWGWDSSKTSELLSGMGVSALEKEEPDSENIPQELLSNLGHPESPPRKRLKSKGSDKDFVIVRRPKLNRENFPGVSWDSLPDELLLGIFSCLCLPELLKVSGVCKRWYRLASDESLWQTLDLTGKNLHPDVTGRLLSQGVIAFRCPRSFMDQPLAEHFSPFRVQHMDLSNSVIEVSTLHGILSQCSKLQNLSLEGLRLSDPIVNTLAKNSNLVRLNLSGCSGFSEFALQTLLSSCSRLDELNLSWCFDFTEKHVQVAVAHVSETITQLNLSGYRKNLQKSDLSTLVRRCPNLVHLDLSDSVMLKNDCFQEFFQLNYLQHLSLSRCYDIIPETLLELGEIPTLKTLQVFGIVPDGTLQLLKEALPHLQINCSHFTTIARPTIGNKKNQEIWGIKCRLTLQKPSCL

As for “4-methoxy-N-(5-(pyridin-3-yl)quinolin-8-yl)benzenesulfonamide [Compound 29]”, the IC50 in experiment [1] (setting [3]) turned out to be 2.45 µM; in experiment [1] (setting [4]), 2.45 µM; in the experiment on fibrosarcoma HT1080, 1320 nM; in experiment [2], 3060 nM.

As for “4-methoxy-N-(5-(pyridin-4-yl)quinolin-8-yl)benzenesulfonamide [Compound 23]”, the IC50 in experiment [1] (setting [3]) came to 0.58 µM; in experiment [1] (setting [4]), 0.58 µM; in the experiment with fibrosarcoma HT1080, 440 nM; in experiment [2] it was 1240 nM.

On to `Cc1ccc(S(=O)(=O)Nc2ccc(Br)c3cccnc23)cc1` [Compound 1, N-(5-bromoquinolin-8-yl)-4-methylbenzenesulfonamide], for which, in experiment [1] (setting [5]), the IC50 is 0.84 µM.

With `Cc1ccc(S(=O)(=O)Nc2ccc(-c3ccccc3)c3cccnc23)cc1` [Compound 4, 4-methyl-N-(5-phenylquinolin-8-yl)benzenesulfonamide], the IC50 in experiment [1] (setting [5]) was 0.54 µM; in experiment [1] (setting [3]) it was 0.54 µM; in the experiment on fibrosarcoma HT1080 (Homo sapiens, HT-1080) it was 1640 nM; in experiment [2] (Homo sapiens), 2360 nM.

Turning to `Cc1ccc(S(=O)(=O)Nc2ccc(-c3ccco3)c3cccnc23)cc1` [Compound 5, N-(5-(furan-2-yl)quinolin-8-yl)-4-methylbenzenesulfonamide], the IC50 in experiment [1] (setting [5]) was 0.55 µM; in experiment [1] (setting [3]), 0.55 µM; in the experiment with fibrosarcoma HT1080 (Homo sapiens, HT-1080) it was 9780 nM; in experiment [2] (Homo sapiens) it was 26000 nM.

As to `Cc1ccc(S(=O)(=O)Nc2ccc(-c3cccnc3)c3cccnc23)cc1` [Compound 6, 4-methyl-N-(5-(pyridin-3-yl)quinolin-8-yl)benzenesulfonamide], the IC50 in experiment [1] (setting [5]) came to 1.73 µM; in experiment [1] (setting [3]), 1.73 µM; in the experiment on fibrosarcoma HT1080 (Homo sapiens, HT-1080) it was 4220 nM; in experiment [2] (Homo sapiens), 6020 nM.

In the case of `Cc1ccc(S(=O)(=O)Nc2ccc(-c3ccsc3)c3cccnc23)cc1` [Compound 7, 4-methyl-N-(5-(thiophen-3-yl)quinolin-8-yl)benzenesulfonamide], the IC50 in experiment [1] (setting [5]) was determined as 5.54 µM; in experiment [1] (setting [3]), 5.54 µM; in the experiment with fibrosarcoma HT1080 (Homo sapiens, HT-1080), 640 nM; in experiment [2] (Homo sapiens) it was 2360 nM.

Regarding `Cc1ccc(S(=O)(=O)Nc2ccc(-c3cc4ccccc4s3)c3cccnc23)cc1` [Compound 8, N-(5-(benzo[b]thiophen-2-yl)quinolin-8-yl)-4-methylbenzenesulfonamide], the IC50 stood at 7.84 µM in experiment [1] (setting [5]); 7.84 µM in experiment [1] (setting [3]); 150 nM in the experiment on fibrosarcoma HT1080 (Homo sapiens, HT-1080); 390 nM in experiment [2] (Homo sapiens).

As to `Cc1ccc(S(=O)(=O)Nc2cc(Oc3cc(F)cc(F)c3)cc3cccnc23)cc1` [Compound 12, N-(6-(3,5-difluorophenoxy)quinolin-8-yl)-4-methylbenzenesulfonamide], the IC50 worked out at 3.57 µM in experiment [1] (setting [5]), 3.57 µM in experiment [1] (setting [3]), 80 nM in the experiment with fibrosarcoma HT1080 and 4110 nM in experiment [2].

As to `COc1ccc(Oc2cc(NS(=O)(=O)c3ccc(C)cc3)c3ncccc3c2)cc1` [Compound 13, N-(6-(4-methoxyphenoxy)quinolin-8-yl)-4-methylbenzenesulfonamide], the IC50 in experiment [1] (setting [5]) was determined as 1.15 µM; in experiment [1] (setting [3]), 1.15 µM; with fibrosarcoma HT1080 it was 740 nM; in experiment [2], 4090 nM.

`Cc1ccc(S(=O)(=O)Nc2cc(Oc3cccc(C#N)c3)cc3cccnc23)cc1` [Compound 14, N-(6-(3-cyanophenoxy)quinolin-8-yl)-4-methylbenzenesulfonamide]: the IC50 in experiment [1] (setting [5]) amounted to 1.74 µM; in experiment [1] (setting [3]), 1.74 µM; in the experiment with fibrosarcoma HT1080, 6830 nM; in experiment [2], 6480 nM.

`CS(=O)(=O)Nc1ccc(-c2ccccc2)c2cccnc12` [Compound 15, N-(5-phenylquinolin-8-yl)methanesulfonamide]: in experiment [1] (setting [4]), the IC50 was found to be 2.2 µM.

Take `O=S(=O)(Nc1ccc(-c2ccccc2)c2cccnc12)C1CC1` [Compound 16, N-(5-phenylquinolin-8-yl)cyclopropanesulfonamide]: the IC50 in experiment [1] (setting [4]) came out at 12.1 µM.

In the case of `COc1ccc(S(=O)(=O)Nc2ccc(-c3ccccc3)c3cccnc23)cc1` [Compound 17, 4-methoxy-N-(5-phenylquinolin-8-yl)benzenesulfonamide], the IC50 in experiment [1] (setting [4]) was determined as 8.02 µM.

Consider `O=S(=O)(Nc1ccc(-c2ccccc2)c2cccnc12)c1cccc(C(F)(F)F)c1` [Compound 18, N-(5-phenylquinolin-8-yl)-3-(trifluoromethyl)benzenesulfonamide], for which the IC50 in experiment [1] (setting [4]) was 6.7 µM.

`O=S(=O)(Nc1ccc(-c2ccccc2)c2cccnc12)c1cccnc1` [Compound 19, N-(5-phenylquinolin-8-yl)pyridine-3-sulfonamide]: the IC50 in experiment [1] (setting [4]) was 2.2 µM.

As to `CC(=O)Nc1ccc(S(=O)(=O)Nc2ccc(-c3ccccc3)c3cccnc23)cc1` [Compound 20, N-(4-(N-(5-phenylquinolin-8-yl)sulfamoyl)phenyl)acetamide], the IC50 in experiment [1] (setting [4]) is 7.6 µM.

With `CS(=O)(=O)Nc1ccc(-c2cccnc2)c2cccnc12` [Compound 21, N-(5-(pyridin-3-yl)quinolin-8-yl)methanesulfonamide], in experiment [1] (setting [4]), the IC50 was determined as 15.1 µM.

`O=S(=O)(Nc1ccc(-c2cccnc2)c2cccnc12)C1CC1` [Compound 22, N-(5-(pyridin-3-yl)quinolin-8-yl)cyclopropanesulfonamide]: the IC50 in experiment [1] (setting [4]) was 7.16 µM.

On to `O=S(=O)(Nc1ccc(-c2cccnc2)c2cccnc12)c1cccc(C(F)(F)F)c1` [Compound 24, N-(5-(pyridin-3-yl)quinolin-8-yl)-3-(trifluoromethyl)benzenesulfonamide], for which the IC50 in experiment [1] (setting [3]) stood at 0.17 µM; in experiment [1] (setting [4]), 0.17 µM; in the experiment on fibrosarcoma HT1080 (Homo sapiens, HT-1080) it was 400 nM; in experiment [2] (Homo sapiens) it was 910 nM.

As to `O=S(=O)(Nc1ccc(-c2cccnc2)c2cccnc12)c1cccnc1` [Compound 25, N-(5-(pyridin-3-yl)quinolin-8-yl)pyridine-3-sulfonamide], the IC50 is 1.67 µM in experiment [1] (setting [3]); 1.67 µM in experiment [1] (setting [4]); 1070 nM in the experiment on fibrosarcoma HT1080 (Homo sapiens, HT-1080); 5240 nM in experiment [2] (Homo sapiens).

On to `CC(=O)Nc1ccc(S(=O)(=O)Nc2ccc(-c3cccnc3)c3cccnc23)cc1` [Compound 26, N-(4-(N-(5-(pyridin-3-yl)quinolin-8-yl)sulfamoyl)phenyl)acetamide], for which the IC50 in experiment [1] (setting [4]) was 14.5 µM.

On to `O=S(=O)(Nc1ccc(-c2ccncc2)c2cccnc12)C1CC1` [Compound 28, N-(5-(pyridin-4-yl)quinolin-8-yl)cyclopropanesulfonamide], for which the IC50 in experiment [1] (setting [4]) stood at 10.9 µM.

Take `O=S(=O)(Nc1ccc(-c2ccncc2)c2cccnc12)c1cccnc1` [Compound 30, N-(5-(pyridin-4-yl)quinolin-8-yl)pyridine-3-sulfonamide]: the IC50 in experiment [1] (setting [3]) was 1.21 µM; in experiment [1] (setting [4]), 1.21 µM; with fibrosarcoma HT1080 (Homo sapiens, HT-1080) it was 1070 nM; in experiment [2] (Homo sapiens) it was 5880 nM.

Consider `CC(=O)Nc1ccc(S(=O)(=O)Nc2ccc(-c3ccncc3)c3cccnc23)cc1` [Compound 31, N-(4-(N-(5-(pyridin-4-yl)quinolin-8-yl)sulfamoyl)phenyl)acetamide], for which the IC50 in experiment [1] (setting [4]) turned out to be 6.55 µM.
